The values below come from publication PMC5267425, “Identification of small molecule modulators of HIV-1 Tat and Rev protein accumulation” (Retrovirology, 2017).

Type in all cases: cell-based
Data set [1] can be described thus: in vitro. The conditions noted are these: human. How it is done: To assess the activity of compounds against HIV-1 strains having resistance to various ART drugs, assays were performed in the context of CEM-GXR cells. These cells express CD4, CXCR4, and coreceptor, CCR5 as well as an exogenous Tat-driven LTR-GFP expression cassette. Cultures were infected with different HIV-1 strains of interest, differing on their subtypes (A and B), and resistance to three major drug targets (reverse transcriptase, protease, and integrase). The culture contains serial dilutions of the molecule in the final concentrations from 0.156 to 5 μM for 833; 725 nM to 46.87 μM for 791; 1.95 to 62.5 μM for 892. Antiviral activity was evaluated in the assay by measuring inhibition of HIV-1 spread in a coculture of CEM-GXR cells containing 1% of HIV-1 infected (GFP positive) cells using flow cytometric analysis (GuavaSoft 2.2 software, Guava HT8, Millipore). To estimate the viable cell counts, the gate in a flow cytometer (Guava HT8) was set to cover 95% of the freshly passaged uninfected CEM-GXR cell or using ViaCount™. The same parameter was employed to gate viable cells in the inhibition assay and the number of gated cells was obtained by GuavaSoft 2.2 software. For assays using ViaCount™, sample acquisition and data analysis were performed with the selection of EasyFit analysis feature using the ViaCount™ software module.
Additional file 1: Figure S1. […] Cell viability was measured by an XTT assay. […] Cells were analyzed after 24 h incubation with the compounds at the indicated concentrations ranging between 0–47 μM (791), 0–5 μM (833), or 0–62.5 μM (892). Results are expressed as the percentage (%) of viable cells relative to DMSO treatment ±SEM of two independent experiments performed in triplicate. […] Images are cropped to show a representative field of view. b The dose range of the compounds which inhibit HIV-1 GagGFP expression in HeLa rtTA HIVGagGFP C7 cells was measured by mean fluorescence intensity and expressed relative to fluorescence intensity in DMSO-treated samples (N ≥ 3, *p ≤ 0.05, **p ≤ 0.01, and ***p ≤ 0.001). […]

Data set [2] relates to HIV-1 Tat. The experiment in a line: Tat protein decay in the presence of cycloheximide. The conditions noted are these: cycloheximide 10 µg/ml (Figure S4). The method, then:
To assess effect of compounds on HIV-1 Tat stability, the decay of HIV-1 Tat levels was compared between DMSO-treated and compound-treated protein lysates in the presence of cycloheximide. In the first set of experiments, HIV-1 gene expression was induced with doxycylin (dox) for 24 h then 10 μg/mL cycloheximide was added to block new protein synthesis in combination with either DMSO or the compounds. Cells were harvested every 2 h and Tat protein levels measured by western blot. Quantification of the relative intensity of the detected bands was performed using ImageLab software (BioRad) and normalized to corresponding bands of the loading control (GAPDH) from at least three independent experiments. To determine whether the compounds’ effect on HIV-1 gene expression could be reversed by inhibition of the proteasome, compound treatment assay was performed as previously described with the addition of 10 μM MG132 (Sigma-Aldrich) to compound-treated cells 8 h prior to harvesting. Equal amounts of protein were run on 13 or 14% gels by SDS-PAGE, blotted and probed with antibodies for Tat and GAPDH. Quantification of the relative intensity of the detected bands was performed using ImageLab software (BioRad) and normalized to corresponding bands of the loading control (GAPDH) from at least three independent experiments.

The subject of data set [3] is HIV-1 MS RNA isoforms. The experiment in a line: RT-PCR of splice site usage within HIV-1 MS RNA. Conditions: for decrease in levels of Rev1/2 and Nef RNAs relative to DMSO / increase of Tat1 and Tat2 RNAs relative to DMSO: 833 2 µM, 892 15 µM. How it is done: The effect of compound treatment on splice site selection within the HIV-1 MS RNA class was analyzed by radioactive RT-PCR as described previously. Radioactive reaction products were resolved on 6% denaturing polyacrylamide gels (8 M Urea, 1xTBE) and detection using a Typhoon 9400 PhosphorImager (Amersham). Gel densitometry was performed using ImageJ software (NIH) to calculate mRNA levels of HIV-1 MS mRNA isoforms, measured as the density of an individual isoform divided by the total density of all visible viral RNA species in a sample.

One may read the CC50 as the concentration giving 50% cytotoxicity.

`O=C(NC(=S)NNC(=O)c1ccccc1O)c1ccc(-c2ccccc2)cc1` [Compound 833, N-([2-(2-hydroxybenzoyl)hydrazino]carbonothioyl}-4-biphenylcarboxamide] yielded a CC50 at 24 h in data set [1] greater than 5 µM. The “half-life of HIV-1 Tat relative to DMSO” value in data set [2] is listed as “do not alter”. In data set [3], the “decrease in levels of Rev1/2 and Nef RNAs relative to DMSO” value was ~ 30%; the “increase of Tat1 and Tat2 RNAs relative to DMSO” value is less than 10%.

`Cc1cc(NCc2cccnc2)n2ncc(-c3ccc(Cl)cc3)c2n1` [Compound 791, 3-(4-chlorophenyl)-5-methyl-N-(3-pyridinylmethyl)pyrazolo[1,5-a]pyrimidin-7-amine]: in data set [1], half-maximal cytotoxicity (CC50 at 24 h) was put at 24 µM. Also, in data set [2], the “half-life of HIV-1 Tat relative to DMSO” value is given as “do not alter”. For the same compound, in data set [3] (30 µM, 24 h), the “splice site usage within MS RNA relative to control” value is given as “No significant changes”.

Regarding `COc1ccc(C=NNC(=O)c2ccccc2O)cc1O` [Compound 892, 2-hydroxy-N′-(3-hydroxy-4-methoxybenzylidene)benzohydrazide], the cytotoxic concentration (CC50) at 24 h in data set [1] came out at 60 µM. Besides, in data set [2], the “half-life of HIV-1 Tat relative to DMSO” value is given as “do not alter”. Further, in data set [3], the “decrease in levels of Rev1/2 and Nef RNAs relative to DMSO” value is recorded as ~ 30%; the “increase of Tat1 and Tat2 RNAs relative to DMSO” value is given as less than 10%.
